# Legend:
# PAMPA permeability assay = format: in vitro ADME; conditions: pH 7.4
# Source text: Table 3 Physicochemical Properties of 16k | column: result
# ALK WT = ALK WT (Homo sapiens, UniProt Q9UM73); test: Biochemical ALK WT IC50; format: binding; conditions: geometric mean
# AURKA = target: T1, AURKA (Homo sapiens, UniProt O14965); test: KINOMEscan scanEDGE; format: binding; conditions: read-out: % Control (1µM)
# T1 construct: purchased DiscoveRx KINOMEscan (scanEDGE); Thermo Fisher SelectScreen (Z'-LYTE) for PLK-1
# Experimental: (§1) Compound X was assayed at 1 μM in the DiscoveRx KINOMEscan (scanEDGE) assay platform. The results for single-concentration binding interactions are reported as “%Ctrl” (DMSO = 100%Ctrl), where lower numbers indicate stronger hits.
# JNK1 = target: T2, JNK1 (Homo sapiens, UniProt P45983); test: KINOMEscan scanEDGE; format: binding; conditions: read-out: % Control (1µM)
# T2 construct: purchased DiscoveRx KINOMEscan (scanEDGE); Thermo Fisher SelectScreen (Z'-LYTE) for PLK-1
# T2 sequence (P45983 whole entry): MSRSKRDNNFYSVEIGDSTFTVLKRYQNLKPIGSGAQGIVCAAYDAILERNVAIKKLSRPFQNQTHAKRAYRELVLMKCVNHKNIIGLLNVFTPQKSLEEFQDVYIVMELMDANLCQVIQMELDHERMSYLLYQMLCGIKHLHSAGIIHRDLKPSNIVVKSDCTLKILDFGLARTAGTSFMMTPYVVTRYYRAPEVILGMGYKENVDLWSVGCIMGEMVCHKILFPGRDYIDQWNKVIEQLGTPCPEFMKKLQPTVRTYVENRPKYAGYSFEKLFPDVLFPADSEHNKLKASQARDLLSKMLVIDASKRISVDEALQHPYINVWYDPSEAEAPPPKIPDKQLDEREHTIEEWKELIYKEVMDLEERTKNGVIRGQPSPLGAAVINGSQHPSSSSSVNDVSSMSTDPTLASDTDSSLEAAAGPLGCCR
# Experimental: as §1
# JNK3 = target: T3, JNK3 (Homo sapiens, UniProt P53779); test: KINOMEscan scanEDGE; format: binding; conditions: read-out: % Control (1µM)
# T3 construct: purchased DiscoveRx (DiscoverX)
# T3 sequence (P53779 whole entry): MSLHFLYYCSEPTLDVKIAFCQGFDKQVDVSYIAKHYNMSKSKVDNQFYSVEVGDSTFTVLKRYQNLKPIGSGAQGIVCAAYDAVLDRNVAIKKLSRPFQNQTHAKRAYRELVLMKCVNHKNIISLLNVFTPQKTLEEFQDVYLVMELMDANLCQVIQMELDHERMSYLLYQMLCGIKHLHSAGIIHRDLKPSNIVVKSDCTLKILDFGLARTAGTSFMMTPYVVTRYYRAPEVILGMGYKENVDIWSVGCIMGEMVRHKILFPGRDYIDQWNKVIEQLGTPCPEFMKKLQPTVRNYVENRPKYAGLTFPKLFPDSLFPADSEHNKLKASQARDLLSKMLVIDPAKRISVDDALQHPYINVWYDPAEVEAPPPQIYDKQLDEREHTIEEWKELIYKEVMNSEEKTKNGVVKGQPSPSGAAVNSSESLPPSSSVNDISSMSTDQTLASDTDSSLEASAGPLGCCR
# Experimental: as §1
# SRC = target: T4, SRC (Homo sapiens, UniProt P12931); test: KINOMEscan scanEDGE; format: binding; conditions: read-out: % Control (1µM)
# T4 construct: purchased DiscoveRx KINOMEscan (scanEDGE); Thermo Fisher SelectScreen (Z'-LYTE) for PLK-1
# Experimental: as §1
# VEGFR2 = target: T5, VEGFR2 (Homo sapiens, UniProt P35968); test: KINOMEscan scanEDGE; format: binding; conditions: read-out: % Control (1µM)
# T5 construct: purchased DiscoveRx (DiscoverX)
# T5 sequence (P35968 20-1356): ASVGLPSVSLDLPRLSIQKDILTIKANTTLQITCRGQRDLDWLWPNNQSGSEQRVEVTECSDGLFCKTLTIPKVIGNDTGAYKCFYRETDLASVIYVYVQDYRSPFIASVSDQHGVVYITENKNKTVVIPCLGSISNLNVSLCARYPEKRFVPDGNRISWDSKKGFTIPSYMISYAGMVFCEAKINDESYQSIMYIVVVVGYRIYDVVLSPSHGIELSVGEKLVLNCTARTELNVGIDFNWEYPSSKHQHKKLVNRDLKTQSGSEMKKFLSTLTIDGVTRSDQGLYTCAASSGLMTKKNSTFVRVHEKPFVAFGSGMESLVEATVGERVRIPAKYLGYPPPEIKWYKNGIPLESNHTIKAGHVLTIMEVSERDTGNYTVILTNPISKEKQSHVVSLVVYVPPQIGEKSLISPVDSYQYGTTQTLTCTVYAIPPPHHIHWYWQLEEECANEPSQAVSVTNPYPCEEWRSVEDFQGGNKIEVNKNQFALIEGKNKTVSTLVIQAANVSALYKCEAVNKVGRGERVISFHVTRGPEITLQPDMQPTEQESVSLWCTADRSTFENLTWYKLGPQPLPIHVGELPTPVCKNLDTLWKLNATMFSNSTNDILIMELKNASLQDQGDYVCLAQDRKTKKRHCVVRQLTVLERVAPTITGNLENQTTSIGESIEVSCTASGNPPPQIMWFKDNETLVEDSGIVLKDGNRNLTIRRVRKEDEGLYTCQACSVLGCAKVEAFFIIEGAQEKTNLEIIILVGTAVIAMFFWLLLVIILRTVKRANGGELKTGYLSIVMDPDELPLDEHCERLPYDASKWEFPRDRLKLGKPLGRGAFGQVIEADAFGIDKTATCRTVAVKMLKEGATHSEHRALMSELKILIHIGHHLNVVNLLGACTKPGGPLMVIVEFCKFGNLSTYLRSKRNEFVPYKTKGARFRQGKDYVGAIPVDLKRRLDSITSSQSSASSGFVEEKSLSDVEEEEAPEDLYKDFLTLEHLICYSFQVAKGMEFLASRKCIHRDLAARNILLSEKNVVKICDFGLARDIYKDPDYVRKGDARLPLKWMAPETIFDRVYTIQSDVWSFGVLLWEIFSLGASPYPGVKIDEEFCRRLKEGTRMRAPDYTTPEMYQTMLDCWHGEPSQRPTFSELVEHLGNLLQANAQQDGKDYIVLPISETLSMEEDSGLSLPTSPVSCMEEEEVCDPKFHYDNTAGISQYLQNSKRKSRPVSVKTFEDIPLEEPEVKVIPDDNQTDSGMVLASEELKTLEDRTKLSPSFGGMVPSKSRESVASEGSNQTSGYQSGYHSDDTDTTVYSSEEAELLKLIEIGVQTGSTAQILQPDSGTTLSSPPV
# Experimental: as §1
# ERBB4 = target: T6, ERBB4 (Homo sapiens, UniProt Q15303); test: KINOMEscan scanEDGE; format: binding; conditions: read-out: % Control (1µM)
# T6 construct: purchased DiscoveRx KINOMEscan (scanEDGE); Thermo Fisher SelectScreen (Z'-LYTE) for PLK-1
# Experimental: as §1
# PIK3CG = target: T7, PIK3CG (Homo sapiens, UniProt P48736); test: KINOMEscan scanEDGE; format: binding; conditions: read-out: % Control (1µM)
# T7 construct: purchased DiscoveRx KINOMEscan (scanEDGE); Thermo Fisher SelectScreen (Z'-LYTE) for PLK-1
# Experimental: as §1
# FGFR3 = target: T8, FGFR3 (Homo sapiens, UniProt P22607); test: KINOMEscan scanEDGE; format: binding; conditions: read-out: % Control (1µM)
# T8 construct: purchased DiscoveRx KINOMEscan (scanEDGE); Thermo Fisher SelectScreen (Z'-LYTE) for PLK-1
# Experimental: as §1
# MKNK1 = target: T9, MKNK1 (Homo sapiens, UniProt Q9BUB5); test: KINOMEscan scanEDGE; format: binding; conditions: read-out: % Control (1µM)
# T9 construct: purchased DiscoveRx KINOMEscan (scanEDGE); Thermo Fisher SelectScreen (Z'-LYTE) for PLK-1
# T9 sequence (Q9BUB5 whole entry): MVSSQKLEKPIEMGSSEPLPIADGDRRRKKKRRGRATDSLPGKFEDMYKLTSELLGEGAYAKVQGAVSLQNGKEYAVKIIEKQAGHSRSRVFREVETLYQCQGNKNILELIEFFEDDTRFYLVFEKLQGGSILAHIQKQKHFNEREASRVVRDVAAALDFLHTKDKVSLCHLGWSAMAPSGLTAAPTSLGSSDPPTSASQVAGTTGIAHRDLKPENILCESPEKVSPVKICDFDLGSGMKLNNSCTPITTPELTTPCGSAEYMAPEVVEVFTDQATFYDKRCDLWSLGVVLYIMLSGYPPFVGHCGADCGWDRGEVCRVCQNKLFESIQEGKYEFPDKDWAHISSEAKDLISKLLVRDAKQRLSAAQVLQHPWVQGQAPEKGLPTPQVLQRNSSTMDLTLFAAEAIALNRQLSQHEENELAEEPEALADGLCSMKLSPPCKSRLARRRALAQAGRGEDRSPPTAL
# Experimental: as §1
# SMARCA2A = target: T10, SMARCA2A (Homo sapiens, UniProt P51531); test: Bromodomain thermal shift screening (DSF); format: binding; conditions: Group VIII
# T10 construct: Bromodomain thermal shift screening data for 16k
# Experimental: (§2) BRD4 thermal shift was measured in a differential scanning fluorimetry (DSF) assay. The assay was performed on a Stratagene Mx3005P system quantitative polymerase chain reaction (qPCR). The assay was performed in 96-well plates with 20 μL of protein at 2 μM in DSF-assay buffer (10 mM HEPES pH 7.5, 500 mM NaCl) to which 4 μL of Sypro orange dye and 0.4 μL of 10 μM compound in DMSO was added. The plate was sealed and centrifuged (1 min, 1000 rpm), and the qPCR machine was used to detect SYPRO fluorescence while increasing the temperature from 25 to 95 °C in 71 cycles. The sigmoidal part of the fluorescence signal was fitted using the Boltzmann equation, the points of change were defined, and the thermal shift was calculated by subtracting the protein/DMSO Tm shift from the protein/compound Tm shift.
# SP100 = target: T11, SP100 (Homo sapiens, UniProt P23497); test: Bromodomain thermal shift screening (DSF); format: binding; conditions: Group V
# T11 construct: Bromodomain thermal shift screening data for 16k
# Experimental: as §2
# WDR9 = test: Bromodomain thermal shift screening (DSF); format: binding; conditions: Group VII
# Experimental: as §2
# TRIM33B = test: Bromodomain thermal shift screening (DSF); format: binding; conditions: Group V
# Experimental: as §2
# BRD3(2) = target: T12, BRD3(2) (Homo sapiens, UniProt Q15059); test: Bromodomain thermal shift screening (DSF); format: binding; conditions: Group II (BET)
# T12 construct: BRD3(2)
# Experimental: as §2
# BRD3(1) = target: T13, BRD3(1) (Homo sapiens, UniProt Q15059); test: Bromodomain thermal shift screening (DSF); format: binding; conditions: Group II (BET)
# T13 construct: BRD3(1)
# T13 sequence (Q15059 34-140 limits assumed, species assumed): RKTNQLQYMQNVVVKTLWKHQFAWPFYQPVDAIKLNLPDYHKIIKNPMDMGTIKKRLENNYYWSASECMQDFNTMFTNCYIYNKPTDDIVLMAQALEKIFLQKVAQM
# Experimental: as §2
# PB1A(1) = target: T14, PB1A(1) (Homo sapiens, UniProt Q86U86); test: Bromodomain thermal shift screening (DSF); format: binding; conditions: Group VIII
# T14 construct: Bromodomain thermal shift screening data for 16k
# Experimental: as §2
# TAF1LA(1) = target: T15, TAF1LA(1) (Homo sapiens, UniProt Q8IZX4); test: Bromodomain thermal shift screening (DSF); format: binding; conditions: Group VII
# T15 construct: Bromodomain thermal shift screening data for 16k
# Experimental: as §2
# TAF1A(1) = target: T16, TAF1A(1) (Homo sapiens, UniProt P21675); test: Bromodomain thermal shift screening (DSF); format: binding; conditions: Group VII
# T16 construct: Bromodomain thermal shift screening data for 16k
# Experimental: as §2
# BRDT(1) = target: T17, BRDT(1) (Homo sapiens, UniProt Q58F21); test: Bromodomain thermal shift screening (DSF); format: binding; conditions: Group II (BET)
# T17 construct: Bromodomain thermal shift screening data for 16k
# Experimental: as §2
# SMARCA4A = target: T18, SMARCA4A (Homo sapiens, UniProt P51532); test: Bromodomain thermal shift screening (DSF); format: binding; conditions: Group VIII
# T18 construct: Bromodomain thermal shift screening data for 16k
# Experimental: as §2
# SMARCA2B = target: T19, SMARCA2B (Homo sapiens, UniProt P51531); test: Bromodomain thermal shift screening (DSF); format: binding; conditions: Group VIII
# T19 construct: Bromodomain thermal shift screening data for 16k
# Experimental: as §2
# PB1A(3) = target: T20, PB1A(3) (Homo sapiens, UniProt Q86U86); test: Bromodomain thermal shift screening (DSF); format: binding; conditions: Group VIII
# T20 construct: Bromodomain thermal shift screening data for 16k
# T20 sequence (Q86U86 381-487 limits assumed): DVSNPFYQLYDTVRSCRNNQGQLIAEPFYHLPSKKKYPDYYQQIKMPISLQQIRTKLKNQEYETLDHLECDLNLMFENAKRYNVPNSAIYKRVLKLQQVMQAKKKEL
# Experimental: as §2
# PB1A(5) = target: T21, PB1A(5) (Homo sapiens, UniProt Q86U86); test: Bromodomain thermal shift screening (DSF); format: binding; conditions: Group VIII
# T21 construct: Bromodomain thermal shift screening data for 16k
# Experimental: as §2
# PB1A(6) = target: T22, PB1A(6) (Homo sapiens, UniProt Q86U86); test: Bromodomain thermal shift screening (DSF); format: binding; conditions: Group VIII
# T22 construct: Bromodomain thermal shift screening data for 16k
# T22 sequence (Q86U86 769-879 limits assumed): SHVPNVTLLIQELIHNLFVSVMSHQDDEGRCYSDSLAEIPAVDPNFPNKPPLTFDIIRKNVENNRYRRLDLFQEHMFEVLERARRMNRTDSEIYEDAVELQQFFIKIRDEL
# Experimental: as §2
# BRD2(2) = target: T23, BRD2(2) (Homo sapiens, UniProt P25440); test: Bromodomain thermal shift screening (DSF); format: binding; conditions: Group II (BET)
# T23 construct: BRD2(2)
# Experimental: as §2
# PB1A(4) = target: T24, PB1A(4) (Homo sapiens, UniProt Q86U86); test: Bromodomain thermal shift screening (DSF); format: binding; conditions: Group VIII
# T24 construct: Bromodomain thermal shift screening data for 16k
# Experimental: as §2
# EP300 = target: T25, EP300 (Homo sapiens, UniProt Q09472); test: Bromodomain thermal shift screening (DSF); format: binding; conditions: Group III
# T25 construct: Bromodomain thermal shift screening data for 16k
# Experimental: as §2
# BRDT(2) = target: T26, BRDT(2) (Homo sapiens, UniProt Q58F21); test: Bromodomain thermal shift screening (DSF); format: binding; conditions: Group II (BET)
# T26 construct: Bromodomain thermal shift screening data for 16k
# Experimental: as §2
# BRD2(1) = target: T27, BRD2(1) (Homo sapiens, UniProt P25440); test: Bromodomain thermal shift screening (DSF); format: binding; conditions: Group II (BET)
# T27 construct: BRD2(1)
# Experimental: as §2
# TAF1A(2) = target: T28, TAF1A(2) (Homo sapiens, UniProt P21675); test: Bromodomain thermal shift screening (DSF); format: binding; conditions: Group VII
# T28 construct: Bromodomain thermal shift screening data for 16k
# Experimental: as §2
# TAF1LA(2) = target: T29, TAF1LA(2) (Homo sapiens, UniProt Q8IZX4); test: Bromodomain thermal shift screening (DSF); format: binding; conditions: Group VII
# T29 construct: Bromodomain thermal shift screening data for 16k
# Experimental: as §2
# PCAF = target: T30, PCAF (Homo sapiens, UniProt Q92831); test: Bromodomain thermal shift screening (DSF); format: binding; conditions: Group I
# T30 construct: Bromodomain thermal shift screening data for 16k
# T30 sequence (Q92831 723-827 limits assumed): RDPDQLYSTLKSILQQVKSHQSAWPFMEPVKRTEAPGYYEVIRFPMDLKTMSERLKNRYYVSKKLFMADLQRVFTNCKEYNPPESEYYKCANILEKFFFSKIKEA
# Experimental: as §2
# BRD4(2) = target: T31, BRD4(2) (Homo sapiens, UniProt O60885); test: Bromodomain thermal shift screening (DSF); format: binding; conditions: Group II (BET)
# T31 construct: BRD4(2)
# Experimental: as §2
# BRPF1A = target: T32, BRPF1A (Homo sapiens, UniProt P55201); test: Bromodomain thermal shift screening (DSF); format: binding; conditions: Group IV
# T32 construct: Bromodomain thermal shift screening data for 16k
# T32 sequence (P55201 626-746 isoform P55201-2 limits assumed): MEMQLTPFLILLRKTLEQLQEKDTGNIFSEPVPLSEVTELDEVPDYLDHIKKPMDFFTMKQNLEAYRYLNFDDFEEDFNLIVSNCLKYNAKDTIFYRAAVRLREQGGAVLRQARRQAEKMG
# Experimental: as §2
# BRD1 = target: T33, BRD1 (Homo sapiens, UniProt O95696); test: Bromodomain thermal shift screening (DSF); format: binding; conditions: Group IV
# T33 construct: Bromodomain thermal shift screening data for 16k
# T33 sequence (O95696 562-666 limits assumed): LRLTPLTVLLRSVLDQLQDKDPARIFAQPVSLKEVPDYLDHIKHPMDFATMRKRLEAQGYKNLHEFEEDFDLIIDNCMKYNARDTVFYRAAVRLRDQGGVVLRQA
# Experimental: as §2
# Sequence of ALK WT (Q9UM73 19-1620): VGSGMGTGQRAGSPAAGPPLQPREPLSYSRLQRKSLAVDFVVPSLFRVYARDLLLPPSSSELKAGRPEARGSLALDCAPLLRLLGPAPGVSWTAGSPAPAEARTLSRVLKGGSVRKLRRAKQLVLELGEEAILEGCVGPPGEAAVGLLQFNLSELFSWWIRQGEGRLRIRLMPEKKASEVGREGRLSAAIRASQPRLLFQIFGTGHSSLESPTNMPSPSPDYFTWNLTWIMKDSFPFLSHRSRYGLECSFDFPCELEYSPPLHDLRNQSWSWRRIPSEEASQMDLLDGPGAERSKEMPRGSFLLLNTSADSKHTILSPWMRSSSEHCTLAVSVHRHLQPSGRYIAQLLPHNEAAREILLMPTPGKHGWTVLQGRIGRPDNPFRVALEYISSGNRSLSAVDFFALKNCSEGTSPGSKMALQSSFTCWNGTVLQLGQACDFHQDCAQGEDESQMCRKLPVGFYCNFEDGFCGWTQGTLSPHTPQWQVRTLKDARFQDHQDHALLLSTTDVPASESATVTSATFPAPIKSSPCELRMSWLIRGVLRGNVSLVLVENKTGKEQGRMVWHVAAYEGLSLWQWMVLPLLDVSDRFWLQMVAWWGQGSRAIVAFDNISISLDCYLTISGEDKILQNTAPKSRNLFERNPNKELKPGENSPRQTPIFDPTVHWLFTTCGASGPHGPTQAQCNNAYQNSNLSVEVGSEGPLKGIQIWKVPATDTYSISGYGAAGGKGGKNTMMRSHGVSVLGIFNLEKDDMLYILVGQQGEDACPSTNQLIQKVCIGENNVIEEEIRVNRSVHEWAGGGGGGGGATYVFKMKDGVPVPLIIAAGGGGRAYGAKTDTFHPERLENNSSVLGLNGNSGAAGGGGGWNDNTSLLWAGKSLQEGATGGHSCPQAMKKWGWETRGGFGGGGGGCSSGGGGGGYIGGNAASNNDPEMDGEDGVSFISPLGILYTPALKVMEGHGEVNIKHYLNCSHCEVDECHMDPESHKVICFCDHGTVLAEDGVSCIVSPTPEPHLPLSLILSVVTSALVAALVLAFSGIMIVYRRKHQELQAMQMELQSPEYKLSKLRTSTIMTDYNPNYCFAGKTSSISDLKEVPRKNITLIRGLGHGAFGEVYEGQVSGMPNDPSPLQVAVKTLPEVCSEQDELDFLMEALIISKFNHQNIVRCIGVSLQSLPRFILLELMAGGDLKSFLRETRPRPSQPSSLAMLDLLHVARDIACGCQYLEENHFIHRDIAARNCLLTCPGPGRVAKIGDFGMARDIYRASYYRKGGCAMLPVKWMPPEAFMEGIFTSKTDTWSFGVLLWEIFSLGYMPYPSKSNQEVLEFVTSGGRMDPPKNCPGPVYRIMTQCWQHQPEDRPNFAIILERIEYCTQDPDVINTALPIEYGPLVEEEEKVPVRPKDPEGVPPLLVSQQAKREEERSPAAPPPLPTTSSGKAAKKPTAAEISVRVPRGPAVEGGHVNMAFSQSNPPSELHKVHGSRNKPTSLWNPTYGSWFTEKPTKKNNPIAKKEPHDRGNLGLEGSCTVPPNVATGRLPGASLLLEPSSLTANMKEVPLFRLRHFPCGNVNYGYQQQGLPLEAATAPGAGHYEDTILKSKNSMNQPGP
smiles,measurement,setting,value
"CCOc1cc(C2CCN(C)CC2)ccc1Nc1ncc2c(n1)N(Cc1cc(C)cs1)[C@H](CC)C(=O)N2C [16k, (R)-2-((2-Ethoxy-4-(1-methylpiperidin-4-yl)phenyl)amino)-7-ethyl-5-methyl-8-((4-methylthiophen-2-yl)methyl)-7,8-dihydropteridin-6(5H)-one]",PAMPA pH7.4,PAMPA permeability assay,49 × 10^–6 cm/s
same,IC50,ALK WT,60 ± 12 nM
same,remaining binding at 1 µM,AURKA,99%
same,remaining binding at 1 µM,JNK1,64%
same,remaining binding at 1 µM,JNK3,39%
same,remaining binding at 1 µM,SRC,100%
same,remaining binding at 1 µM,VEGFR2,87%
same,remaining binding at 1 µM,ERBB4,93%
same,remaining binding at 1 µM,PIK3CG,98%
same,remaining binding at 1 µM,FGFR3,98%
same,remaining binding at 1 µM,MKNK1,100%
same,Thermal Shift,SMARCA2A,-2.4 K
same,Thermal Shift,SP100,0.05 K
same,Thermal Shift,WDR9,-4.2 K
same,Thermal Shift,TRIM33B,-1.2 K
same,Thermal Shift,BRD3(2),5.9 K
same,Thermal Shift,BRD3(1),7.3 K
same,Thermal Shift,PB1A(1),1.95 K
same,Thermal Shift,TAF1LA(1),-3.4 K
same,Thermal Shift,TAF1A(1),-0.45 K
same,Thermal Shift,BRDT(1),2.7 K
same,Thermal Shift,SMARCA4A,-4.5 K
same,Thermal Shift,SMARCA2B,-0.35 K
same,Thermal Shift,PB1A(3),0.35 K
same,Thermal Shift,PB1A(5),-0.7 K
same,Thermal Shift,PB1A(6),-2.75 K
same,Thermal Shift,BRD2(2),3.95 K
same,Thermal Shift,PB1A(4),-0.1 K
same,Thermal Shift,EP300,-1 K
same,Thermal Shift,BRDT(2),0.6 K
same,Thermal Shift,BRD2(1),-0.95 K
same,Thermal Shift,TAF1A(2),-1.05 K
same,Thermal Shift,TAF1LA(2),-2.9 K
same,Thermal Shift,PCAF,-1.65 K
same,Thermal Shift,BRD4(2),4.4 K
same,Thermal Shift,BRPF1A,0.8 K
same,Thermal Shift,BRD1,-0.15 K
